Columns and labels:
[1] = system: IPOHE (Morningglory, Ivyleaf); assay: Postemergence herbicidal evaluation; type: in vivo, Ipomoea hederacea; details: for Herbicidal rating IPOHE: postemergence
Method in brief: (§1)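 Herbicidal effect was judged by eye on a 0–9 scale covering stand, vigor, deformity, size and chlorosis, compared with controls, four to five weeks after seedlings about two weeks old were sprayed (40 psi, ~0.0156–0.500 kg/ha).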

[2] = system: SETVI (Foxtail, Green); assay: Preemergence herbicidal evaluation; type: in vivo, Setaria viridis; details: rated 4-5 weeks after treatment; for SETVI rating: preemergence, 0-9 scale
Method in brief: (§2)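 Scores use a 0–9 visual scale covering stand, vigor, malformation, size and chlorosis relative to controls, rated four to five weeks after treatment. Before emergence, soil-planted seeds were sprayed with compound in aqueous acetone at roughly 0.0156–0.500 kg/ha and held in the greenhouse.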

[3] = system: IPOHE (Morningglory, Ivyleaf); assay: Preemergence herbicidal evaluation; type: in vivo, Ipomoea hederacea; details: rated 4-5 weeks after treatment; for IPOHE rating: preemergence, 0-9 scale
Method in brief: as §2

[4] = system: CYPIR (Rice Flatsedge); assay: Preemergence weed control under flooded paddy conditions; type: in vivo, Cyperus iria; details: rated 3-4 weeks after treatment
Method in brief: (§3)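 Herbicidal effect is scored visually on a 0-9 scale against an untreated control, three to four weeks after compounds are pipetted into the flood water (1.5 to 3 cm deep) over seeds planted in silt loam at 0.5 cm depth. Rates: about 0.0313 to 0.500 kg/ha.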

[5] = system: ECHORC (Watergrass (Calif.)); assay: as above; type: in vivo, Echinochloa oryzoides; details: rated 3-4 weeks after treatment
Method in brief: as §3

[6] = system: TRZAWR (Wheat, Winter, cv Riband); assay: Postemergence herbicidal evaluation; type: in vivo, Triticum aestivum; details: for Herbicidal rating TRZAWR: postemergence
Method in brief: as §1

[7] = system: SAGPY (Arrowhead (Pygmaea)); assay: Postemergence weed control under flooded paddy conditions; type: in vivo, Sagittaria pygmaea; details: postemergence weeds
Method in brief: (§4)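 Herbicidal effect is judged by eye on a 0–9 scale versus control, 3–4 weeks after dosing. Dosing is into flood water kept 1.5–3 cm over the soil, at about 0.0313–0.500 kg/ha in aqueous/acetone 50/50 v/v, on 3–5 cm weeds and 1.5–2.5-leaf rice seedlings.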

[8] = system: ZEAMX (Corn, Field); assay: Preemergence herbicidal evaluation; type: in vivo, Zea mays; details: rated 4-5 weeks after treatment; for ZEAMX rating: preemergence, 0-9 scale
Method in brief: as §2

[9] = system: ECHCG (Barnyardgrass); assay: Preemergence herbicidal evaluation; type: in vivo, Echinochloa crus-galli; details: rated 4-5 weeks after treatment; for ECHCG rating: preemergence, 0-9 scale
Method in brief: as §2

[10] = system: MOOVA (Monochoria); assay: Preemergence weed control under flooded paddy conditions; type: in vivo, Monochoria vaginalis; details: rated 3-4 weeks after treatment
Method in brief: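 Ratings on a 0-9 visual scale cover stand, vigor, malformation, size, chlorosis and overall appearance relative to a control, taken three to four weeks post-treatment. Application was into flood water over freshly sown silt loam at roughly 0.0313 to 0.500 kg/ha.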

[11] = system: GALAP (Galium); assay: Postemergence herbicidal evaluation; type: in vivo, Galium aparine; details: for Herbicidal rating GALAP: postemergence
Method in brief: as §1

[12] = system: ABUTH (Velvetleaf); assay: Preemergence herbicidal evaluation; type: in vivo, Abutilon theophrasti; details: rated 4-5 weeks after treatment; for ABUTH rating: preemergence, 0-9 scale
Method in brief: as §2

[13] = system: ECHORC (Watergrass (Calif.)); assay: Postemergence weed control under flooded paddy conditions; type: in vivo, Echinochloa oryzoides; details: postemergence weeds
Method in brief: as §4

[14] = system: SETVI (Foxtail, Green); assay: Postemergence herbicidal evaluation; type: in vivo, Setaria viridis; details: for Herbicidal rating SETVI: postemergence
Method in brief: as §1

[15] = rate 0.0313 kg/ha, 3-4 weeks after treatment
[16] = rate 0.0825 kg/ha, 3-4 weeks after treatment
[17] = rate 0.1250 kg/ha, 3-4 weeks after treatment
[18] = rate 0.2500 kg/ha, 3-4 weeks after treatment
[19] = Rate 0.2500 kg/ha, rated 3 to 4 weeks after treatment
[20] = Rate 0.5000 kg/ha, rated 3 to 4 weeks after treatment

SMILES: Cn1c(C(F)(F)F)cc(=O)n(-c2cc(N=C3SCC(=O)N3CC(=O)OC(C)(C)C)c(Cl)cc2F)c1=O [Compound 43, tert-Butyl 2-{{2-chloro-5-[3,6-dihydro-3-methyl-2,6-dioxo-4-(trifluoromethyl)-1(2H)-pyrimidinyl]-4-fluorophenyl}imino}-4-oxo-3-thiazolidineacetate]
- Postemergence herbicidal rating IPOHE ([1]; Rate 0.0158 kg/ha): 9.0
- Postemergence herbicidal rating IPOHE ([1]; Rate 0.0315 kg/ha): 9.0
- Postemergence herbicidal rating IPOHE ([1]; Rate 0.0630 kg/ha): 9.0
- Preemergence herbicidal rating SETVI ([2]; rate 0.0156 kg/ha): 0.0
- Preemergence herbicidal rating SETVI ([2]; rate 0.0313 kg/ha): 0.0
- Preemergence herbicidal rating SETVI ([2]; rate 0.0625 kg/ha): 0.0
- Preemergence herbicidal rating SETVI ([2]; rate 0.1250 kg/ha): 5.0
- Preemergence herbicidal rating SETVI ([2]; rate 0.2500 kg/ha): 9.0
- Preemergence herbicidal rating IPOHE ([3]; rate 0.0156 kg/ha): 0.0
- Preemergence herbicidal rating IPOHE ([3]; rate 0.0313 kg/ha): 0.0
- Preemergence herbicidal rating IPOHE ([3]; rate 0.0625 kg/ha): 0.0
- Preemergence herbicidal rating IPOHE ([3]; rate 0.1250 kg/ha): 2.0
- Preemergence herbicidal rating IPOHE ([3]; rate 0.2500 kg/ha): 9.0
- Herbicidal rating CYPIR ([4]; 0.0313 kg/ha): 0.0
- Herbicidal rating CYPIR ([4]; 0.0625 kg/ha): 2.0
- Herbicidal rating CYPIR ([4]; 0.1250 kg/ha): 4.0
- Herbicidal rating CYPIR ([4]; 0.2500 kg/ha): 5.0
- Herbicidal rating ECHORC ([5]; 0.0313 kg/ha): 5.0
- Herbicidal rating ECHORC ([5]; 0.0625 kg/ha): 6.0
- Herbicidal rating ECHORC ([5]; 0.1250 kg/ha): 7.0
- Herbicidal rating ECHORC ([5]; 0.2500 kg/ha): 9.0
- Postemergence herbicidal rating TRZAWR ([6]; Rate 0.0158 kg/ha): 3.0
- Postemergence herbicidal rating TRZAWR ([6]; Rate 0.0315 kg/ha): 3.5
- Postemergence herbicidal rating TRZAWR ([6]; Rate 0.0630 kg/ha): 4.0
- Herbicidal rating SAGPY [7, 15]: 7.0
- Herbicidal rating SAGPY [7, 16]: 7.0
- Herbicidal rating SAGPY [7, 17]: 7.0
- Herbicidal rating SAGPY [7, 18]: 9.0
- Preemergence herbicidal rating ZEAMX ([8]; rate 0.0156 kg/ha): 0.0
- Preemergence herbicidal rating ZEAMX ([8]; rate 0.0313 kg/ha): 0.0
- Preemergence herbicidal rating ZEAMX ([8]; rate 0.0625 kg/ha): 0.0
- Preemergence herbicidal rating ZEAMX ([8]; rate 0.1250 kg/ha): 3.0
- Preemergence herbicidal rating ZEAMX ([8]; rate 0.2500 kg/ha): 6.0
- Preemergence herbicidal rating ECHCG ([9]; rate 0.0156 kg/ha): 0.0
- Preemergence herbicidal rating ECHCG ([9]; rate 0.0313 kg/ha): 0.0
- Preemergence herbicidal rating ECHCG ([9]; rate 0.0625 kg/ha): 0.0
- Preemergence herbicidal rating ECHCG ([9]; rate 0.1250 kg/ha): 0.0
- Preemergence herbicidal rating ECHCG ([9]; rate 0.2500 kg/ha): 5.0
- Herbicidal rating MOOVA ([10]; 0.0313 kg/ha): 9.0
- Herbicidal rating MOOVA ([10]; 0.0625 kg/ha): 9.0
- Herbicidal rating MOOVA ([10]; 0.1250 kg/ha): 9.0
- Herbicidal rating MOOVA ([10]; 0.2500 kg/ha): 9.0
- Postemergence herbicidal rating GALAP ([11]; Rate 0.0158 kg/ha): 0.0
- Postemergence herbicidal rating GALAP ([11]; Rate 0.0315 kg/ha): 4.0
- Postemergence herbicidal rating GALAP ([11]; Rate 0.0630 kg/ha): 4.0
- Preemergence herbicidal rating ABUTH ([12]; rate 0.0156 kg/ha): 9.0
- Preemergence herbicidal rating ABUTH ([12]; rate 0.0313 kg/ha): 9.0
- Preemergence herbicidal rating ABUTH ([12]; rate 0.0625 kg/ha): 9.0
- Preemergence herbicidal rating ABUTH ([12]; rate 0.1250 kg/ha): 9.0
- Preemergence herbicidal rating ABUTH ([12]; rate 0.2500 kg/ha): 9.0
- Herbicidal rating ECHORC [13, 15]: 5.0
- Herbicidal rating ECHORC [13, 16]: 6.0
- Herbicidal rating ECHORC [13, 17]: 7.0
- Herbicidal rating ECHORC [13, 18]: 9.0
- Postemergence herbicidal rating SETVI ([14]; Rate 0.0158 kg/ha): 3.0
- Postemergence herbicidal rating SETVI ([14]; Rate 0.0315 kg/ha): 3.0
- Postemergence herbicidal rating SETVI ([14]; Rate 0.0630 kg/ha): 8.0

SMILES: CN1C(=O)C(CC(=O)NS(=O)(=O)c2ccccc2)SC1=Nc1cc(-n2c(=O)cc(C(F)(F)F)n(C)c2=O)c(F)cc1Cl (stereo not drawn) [Compound 102, 2-{{2-Chloro-5-[3,6-dihydro-3-methyl-2,6-dioxo-4-(trifluoromethyl)-1(2H)-pyrimidinyl]-4-fluorophenyl}imino}-3-methyl-4-oxo-N-(phenylsulfonyl)-5-thiazolidineacetamide]
- Herbicidal rating IPOHE ([1]; rate 0.0156 kg/ha): 9.0
- Herbicidal rating IPOHE ([1]; rate 0.0313 kg/ha): 9.0
- Herbicidal rating IPOHE ([1]; rate 0.0625 kg/ha): 9.0
- Herbicidal rating IPOHE ([1]; rate 0.1250 kg/ha): 9.0
- SETVI rating ([2]; 0.0156 kg/ha): 1.0
- SETVI rating ([2]; 0.0313 kg/ha): 1.0
- SETVI rating ([2]; 0.0625 kg/ha): 0.0
- SETVI rating ([2]; 0.2500 kg/ha): 0.0
- SETVI rating ([2]; 0.5000 kg/ha): 1.0
- IPOHE rating ([3]; 0.0156 kg/ha): 0.0
- IPOHE rating ([3]; 0.0313 kg/ha): 0.0
- IPOHE rating ([3]; 0.0625 kg/ha): 0.0
- IPOHE rating ([3]; 0.2500 kg/ha): 1.0
- IPOHE rating ([3]; 0.5000 kg/ha): 9.0
- CYPIR herbicidal effect rating ([4]; 0.2500 kg/ha): 2.0
- CYPIR herbicidal effect rating ([4]; 0.5000 kg/ha): 6.0
- ECHORC herbicidal effect rating ([5]; 0.2500 kg/ha): 0.0
- ECHORC herbicidal effect rating ([5]; 0.5000 kg/ha): 2.0
- Herbicidal rating TRZAWR ([6]; rate 0.0156 kg/ha): 3.0
- Herbicidal rating TRZAWR ([6]; rate 0.0313 kg/ha): 3.0
- Herbicidal rating TRZAWR ([6]; rate 0.0625 kg/ha): 4.5
- Herbicidal rating TRZAWR ([6]; rate 0.1250 kg/ha): 4.5
- Herbicidal rating SAGPY [7, 19]: 0.0
- Herbicidal rating SAGPY [7, 20]: 0.0
- ZEAMX rating ([8]; 0.0156 kg/ha): 0.0
- ZEAMX rating ([8]; 0.0313 kg/ha): 0.0
- ZEAMX rating ([8]; 0.0625 kg/ha): 0.0
- ZEAMX rating ([8]; 0.2500 kg/ha): 0.0
- ZEAMX rating ([8]; 0.5000 kg/ha): 1.0
- ECHCG rating ([9]; 0.0156 kg/ha): 0.0
- ECHCG rating ([9]; 0.0313 kg/ha): 0.0
- ECHCG rating ([9]; 0.0625 kg/ha): 0.0
- ECHCG rating ([9]; 0.2500 kg/ha): 0.0
- ECHCG rating ([9]; 0.5000 kg/ha): 0.0
- MOOVA herbicidal effect rating ([10]; 0.2500 kg/ha): 0.0
- MOOVA herbicidal effect rating ([10]; 0.5000 kg/ha): 4.0
- Herbicidal rating GALAP ([11]; rate 0.0156 kg/ha): 1.0
- Herbicidal rating GALAP ([11]; rate 0.0313 kg/ha): 1.0
- Herbicidal rating GALAP ([11]; rate 0.0625 kg/ha): 1.0
- Herbicidal rating GALAP ([11]; rate 0.1250 kg/ha): 4.0
- ABUTH rating ([12]; 0.0156 kg/ha): 0.0
- ABUTH rating ([12]; 0.0313 kg/ha): 0.0
- ABUTH rating ([12]; 0.0625 kg/ha): 9.0
- ABUTH rating ([12]; 0.2500 kg/ha): 6.0
- ABUTH rating ([12]; 0.5000 kg/ha): 9.0
- Herbicidal rating ECHORC [13, 19]: 0.0
- Herbicidal rating ECHORC [13, 20]: 2.0
- Herbicidal rating SETVI ([14]; rate 0.0156 kg/ha): 0.0
- Herbicidal rating SETVI ([14]; rate 0.0313 kg/ha): 1.0
- Herbicidal rating SETVI ([14]; rate 0.0625 kg/ha): 2.0
- Herbicidal rating SETVI ([14]; rate 0.1250 kg/ha): 4.0
